Results on 20 compounds are retold here after patent US20240150365A1 (Hotspot Therapeutics, Inc., priority 2022, published 2024).

Each structure is given as a SMILES string. pIC50: −log10 of the molar value.

One experiment concerns the target T1, MALT1 (Homo sapiens, UniProt Q9UDY8).
T1 construct: Avi-tagged FL MALT-1 (Pharmaron, stored at −70° C.); Avi tag
T1 sequence (Q9UDY8 1-824): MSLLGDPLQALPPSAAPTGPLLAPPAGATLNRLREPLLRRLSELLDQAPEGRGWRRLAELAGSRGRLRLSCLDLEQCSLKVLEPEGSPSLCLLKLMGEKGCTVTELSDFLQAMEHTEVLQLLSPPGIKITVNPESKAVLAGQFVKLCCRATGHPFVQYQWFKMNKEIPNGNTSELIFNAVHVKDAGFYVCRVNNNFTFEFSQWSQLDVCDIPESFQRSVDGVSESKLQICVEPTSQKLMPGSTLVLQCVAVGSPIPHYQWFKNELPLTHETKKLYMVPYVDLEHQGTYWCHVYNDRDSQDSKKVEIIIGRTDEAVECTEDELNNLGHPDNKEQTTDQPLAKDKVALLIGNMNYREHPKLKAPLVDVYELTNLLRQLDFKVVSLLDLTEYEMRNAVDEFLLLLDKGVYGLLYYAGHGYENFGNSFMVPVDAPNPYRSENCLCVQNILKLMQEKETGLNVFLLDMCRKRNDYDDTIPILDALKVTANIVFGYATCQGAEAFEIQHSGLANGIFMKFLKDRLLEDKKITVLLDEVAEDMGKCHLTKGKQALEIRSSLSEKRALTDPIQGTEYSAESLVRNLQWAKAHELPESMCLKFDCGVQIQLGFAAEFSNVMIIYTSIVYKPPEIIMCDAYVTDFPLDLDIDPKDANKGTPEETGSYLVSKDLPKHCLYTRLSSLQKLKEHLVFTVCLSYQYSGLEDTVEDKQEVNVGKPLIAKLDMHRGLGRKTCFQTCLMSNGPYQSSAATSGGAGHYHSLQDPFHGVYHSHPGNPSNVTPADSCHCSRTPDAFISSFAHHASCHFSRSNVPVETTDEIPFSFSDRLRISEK
The experiment can be described thus: MALT-1 Fluorogenic Peptide Cleavage Assay (MALT1 inhibition assay). Format: biochemical. The conditions noted are these: Avi-tagged FL MALT-1, Ac-LRSR-AMC peptide substrate, 30 min pre-incubation, 90 min reaction. How it is done: Inhibition of MALT1 activity by the presence of small molecules was evaluated using MALT-1 Fluorogenic Peptide Cleavage Assay. The assay utilizes a quenched AMC-labelled peptide that contains the MALT-1 recognition sequence and cleavage site (LRSR). MALT-1 mediated cleavage of the peptide relieves the quenching and leads to an increase in fluorescence at excitation (342 nm) and emission (441 nm). The following reagents were obtained commercially and used to prepare standard reagent formulations as further described below: […] The standard reagent formulations used in this assay were prepared and stored as follows. A 1.1 M solution of sodium citrate (161.3 g, 500 mL) was prepared and stored at room temperature. A 10% (w/v) CHAPS solution (2.0 g, 20 mL) was prepared and stored at 4° C. A 500 mM HEPES solution having pH of 6.89 was prepared from 200 mL of a 1 M HEPES solution having a pH of 7.5 using concentrated hydrochloric acid and brought to a final volume of 400 mL with […]® H2O. The substrate, 10 mM Ac-LRSR-AMC Peptide, was prepared (10 mg, 1.370 mL DMSO) and stored at -20° C. Compounds were plated to provide a 2% DMSO final concentration using a ProxiPlate-384 Plus F Black 384-shallow well microplate. The assay-ready plates were equilibrated to room temperature. […] DMSO was added only when compound plates had not been DMSO-backfilled to 2%. MALT-1 was thawed and kept on ice. Peptide substrate was thawed on the bench under ambient conditions. A MALT-1 enzyme working stock was prepared from Avi-tagged FL MALT-1 (40 nM in a prepared reagent volume of 16.5 μL) and the reaction buffer (13.0 mL). MALT1 working stock (5 μL) was added to each well of the microplate. MALT-1 was pre-incubated with compounds for 30 minutes at room temperature. […] The plates were covered and incubated on the bench at room temperature for 90 minutes. Fluorescence intensity was determined using a CLARIOstar microplate reader (BMG LABTECH) using the optimised AMC mode. Before taking readings, a 70% gain was applied on the neutral control well. Compound data were normalised to % Inhibition and used to plot sigmoidal concentration response curves to yield various parameters including IC50. […] Compounds in which an IC50 was not measured are designated as “N/A”.

A further experiment deals with NF-kB. The experiment can be described thus: NF-kB reporter assay in Jurkat cells stimulated with aCD3/aCD28/PMA. It is filed as cell-based. The following applies: Homo sapiens, Jurkat, Jurkat cells, 1 hr compound incubation, aCD3/aCD28/PMA stimulation 4 hr, One-Glo readout; read-out: NF-kB Reporter Assay IC50. How it is done:
Jurkat cells were maintained in complete RPMI 1640 media supplemented with 10% FBS. Prior to the assay, 120 nL of the serial diluted compound was added in each well of 384-well flat bottom white plate (Corning #3570) by using liquid handler Echo550. Jurkat cells were harvested by centrifugation at 120 g for 10 min and resuspended in fresh RPMI 1640 media without serum. 30 μL of cells (25,000 cells) were seeded in each well of 384-well plate containing compound. After 1 hr incubation at 37° C. in a 5% CO2 incubator, 10 μL of diluted aCD3/aCD28/PMA (final concentration at 5 μg/mL, 5 μg/mL and 0.03 μg/mL, respectively) in RPMI 1640 without serum were added to each well. After incubation at 37° C. in 5% CO2 for 4 hr, 30 μL of One-Glo reagent (Promega #E6120) was added into each well. The plate was left at room temperature for 5 min and the signal was measured on EnVision (PerkinElmer).
Compounds in which an IC50 was not measured are designated as “N/A”.

What is called pIC50 is the IC50 on a negative log10 scale, so that one unit is a factor of ten. Consider `Cn1ncc2cccc(NS(=O)(=O)c3ccc(-n4cc(C(F)(F)F)cn4)nc3)c21` [Example I-23, N-(1-Methyl-1H-Indazol-7-yl)-6-(4-(Trifluoromethyl)-1H-Pyrazol-1-yl)Pyridine-3-Sulfonamide], for which the pIC50 on MALT1 is 6.00 to 6.40; in the experiment on NF-kB it was greater than 6.40.
For `Cc1n[nH]c2cccc(NS(=O)(=O)c3ccc(-n4cc(C(F)(F)F)cn4)nc3)c12` [Example I-24, N-(3-Methyl-1H-Indazol-4-yl)-6-(4-(Trifluoromethyl)-1H-Pyrazol-1-yl)Pyridine-3-Sulfonamide], in that order: 5.60 to 6.00 and greater than 6.40.
The corresponding values for `Cn1cc2ccc(Cl)c(NS(=O)(=O)c3ccc(-n4cc(C(F)(F)F)cn4)nc3)c2n1` [Example I-25, N-(6-Chloro-2-Methyl-2H-Indazol-7-yl)-6-(4-(Trifluoromethyl)-1H-Pyrazol-1-yl)Pyridine-3-Sulfonamide] are 5.60 to 6.00 and less than 5.60.
For `CCc1ccc2cn(C)nc2c1NS(=O)(=O)c1ccc(-n2cc(C(F)(F)F)cn2)nc1` [Example I-26, N-(6-Ethyl-2-Methylindazol-7-yl)-6-[4-(Trifluoromethyl)Pyrazol-1-yl]pyridine-3-Sulfonamide], in that order: greater than 6.40 and less than 5.60.
As to `COc1ccc2cn(C)nc2c1NS(=O)(=O)c1ccc(-n2cc(C(F)(F)F)cn2)nc1` [Example I-27, N-(6-Methoxy-2-Methylindazol-7-yl)-6-[4-(Trifluoromethyl)Pyrazol-1-yl]pyridine-3-Sulfonamide], the negative logarithm of the IC50 (pIC50) at MALT1 is greater than 6.40; in the experiment on NF-kB, 5.60 to 6.00.
For `COc1ccc2cnn(C)c2c1NS(=O)(=O)c1ccc(-n2ncc(C(F)(F)F)n2)nc1` [Example I-28, N-(6-Methoxy-1-Methyl-1H-Indazol-7-yl)-6-(4-(Trifluoromethyl)-2H-1,2,3-Triazol-2-yl)Pyridine-3-Sulfonamide], in that order: 6.00 to 6.40 and greater than 6.40.
For `COc1ccc2cnn(C)c2c1NS(=O)(=O)c1ccc(-n2cc(C(F)(F)F)nn2)nc1` [Example I-29, N-(6-Methoxy-1-Methyl-1H-Indazol-7-yl)-6-(4-(Trifluoromethyl)-1H-1,2,3-Triazol-1-yl)Pyridine-3-Sulfonamide], in that order: greater than 6.40 and greater than 6.40.
For `COc1ccc2cnn(C)c2c1N(C)S(=O)(=O)c1ccc(-n2ccc(C(F)(F)F)n2)nc1` [Example I-30, N-(6-Methoxy-1-Methylindazol-7-yl)-N-Methyl-6-[3-(Trifluoromethyl) Pyrazol-1-yl] Pyridine-3-Sulfonamide], in that order: greater than 6.40 and greater than 6.40.
Take `Cc1ccc2cnn(C)c2c1NS(=O)(=O)c1ccc(-n2cc(C(F)(F)F)cn2)nc1` [Example I-31, N-(1,6-Dimethyl-1H-Indazol-7-yl)-6-(4-(Trifluoromethyl)-1H-Pyrazol-1-yl)Pyridine-3-Sulfonamide]: the pIC50 against MALT1 and with NF-kB was greater than 6.40 throughout.
Consider `COc1ccc2cnn(C)c2c1NS(=O)(=O)c1ccc(-n2cc(C(C)C)cn2)nc1` [Example I-32, 6-(4-Isopropyl-1H-Pyrazol-1-yl)-N-(6-Methoxy-1-Methyl-1H-Indazol-7-yl)Pyridine-3-Sulfonamide], for which the negative-log IC50 (pIC50) against MALT1 and with NF-kB was greater than 6.40 throughout.
Regarding `CCc1ccc2cnn(C)c2c1NS(=O)(=O)c1ccc(-n2ccc(C)n2)nc1` [Example I-33, N-(6-Ethyl-1-Methyl-1H-Indazol-7-yl)-6-(3-Methyl-1H-Pyrazol-1-yl)Pyridine-3-Sulfonamide], the pIC50 at MALT1 and in the experiment on NF-kB was greater than 6.40 throughout.
Consider `Cc1ccn(-c2ccc(S(=O)(=O)Nc3c(C)ccc4cnn(C)c34)cn2)n1` [Example I-34, N-(1,6-dimethyl-1H-indazol-7-yl)-6-(3-methyl-1H-pyrazol-1-yl)pyridine-3-sulfonamide], for which the pIC50 against MALT1 is greater than 6.40; with NF-kB, 6.00 to 6.40.
The corresponding values for `COc1cnn(-c2ccc(S(=O)(=O)Nc3cccc4cnn(C)c34)cn2)c1` [Example I-35, 6-(4-Methoxy-1H-Pyrazol-1-yl)-N-(1-Methyl-1H-Indazol-7-yl)Pyridine-3-Sulfonamide] are less than 5.60 and greater than 6.40.
The corresponding values for `CC(C)c1ccn(-c2ccc(S(=O)(=O)Nc3cccc4cnn(C)c34)cn2)n1` [Example I-36, 6-(3-Isopropyl-1H-Pyrazol-1-yl)-N-(1-Methyl-1H-Indazol-7-yl)Pyridine-3-Sulfonamide] are less than 5.60 and greater than 6.40.
The corresponding values for `Cc1ncn(-c2ccc(S(=O)(=O)Nc3cccc4cnn(C)c34)cn2)n1` [Example I-37, 6-(3-Methyl-1H-1,2,4-Triazol-1-yl)-N-(1-Methyl-1H-Indazol-7-yl)Pyridine-3-Sulfonamide] are less than 5.60 and 5.60 to 6.00.
For the compound `Cn1ncc2cccc(NS(=O)(=O)c3ccc(-n4cc(F)cn4)nc3)c21` [Example I-38, 6-(4-Fluoro-1H-Pyrazol-1-yl)-N-(1-Methyl-1H-Indazol-7-yl) Pyridine-3-Sulfonamide], the results for the pIC50 at MALT1 and in the experiment with NF-kB were 5.60 to 6.00 and greater than 6.40, respectively.
The corresponding values for `Cn1ncc2cccc(NS(=O)(=O)c3ccc(-n4cc(C#N)cn4)nc3)c21` [Example I-39, 6-(4-Cyano-1H-Pyrazol-1-yl)-N-(1-Methyl-1H-Indazol-7-yl)Pyridine-3-Sulfonamide] are less than 5.60 and 6.00 to 6.40.
The corresponding values for `Cc1cc(C)n(-c2ccc(S(=O)(=O)Nc3cccc4cnn(C)c34)cn2)n1` [Example I-40, 6-(3,5-Dimethyl-1H-Pyrazol-1-yl)-N-(1-Methyl-1H-Indazol-7-yl)Pyridine-3-Sulfonamide] are less than 5.60 and greater than 6.40.
The corresponding values for `Cn1ncc2cccc(NS(=O)(=O)c3ccc(-n4cc([N+](=O)[O-])cn4)nc3)c21` [Example I-41, N-(1-Methylindazol-7-yl)-6-(4-Nitropyrazol-1-yl)Pyridine-3-Sulfonamide] are greater than 6.40 and 6.00 to 6.40.
As for `Cc1nn(-c2ccc(S(=O)(=O)Nc3cccc4cnn(C)c34)cn2)c(C)c1Cl` [Example I-42, 6-(4-Chloro-3,5-Dimethyl-1H-Pyrazol-1-yl)-N-(1-Methyl-1H-Indazol-7-yl) Pyridine-3-Sulfonamide], the values for the pIC50 against MALT1 and in the experiment with NF-kB were less than 5.60 and greater than 6.40, respectively.
